{
  "source": "patent US20250120959A1",
  "about": "“NEW FORMULATIONS OF PITOLISANT AND METHODS OF USE” (Bioprojet Pharma, priority 2023, published 2025)",
  "origin": "cited, not measured here",
  "note": "Where a name gives a salt, the structure may show the parent alone.",
  "data": [
    {"smiles": "Clc1ccc(CCCOCCCN2CCCCC2)cc1", "note": "[Formula (Ia), 1-[3-[3-(4-chlorophenyl)propoxy]propyl]-piperidine monohydrochloride]", "values": [
      {"measurement": "pKa", "result": "approximately 10.5"}
    ]}
  ]
}
